Measured values from ChEMBL document CHEMBL3885861, “Open TG-GATES”.

Organism: Rattus norvegicus
Assay: Open TG-GATES - Regimen: Daily Repeat
Assay type: toxicity, organism-based, Sprague-Dawley
Parameters: regimen Daily Repeat, gender Male, age 6 weeks
Details: in vivo, po, route gavage; for TP / gamma-GTP / ALP / ALT / AST / BUN / CRE / Ca / DBIL / GLC / K / LDH / Na / PL / RALB / TBIL / TC / TG: tissue Plasma; for Bas / Eos / Fbg / Hb / Ht / Lym / MCH / MCV / Mono / Neu / PT / Plat / RBC / Ret / WBC / APTT / MCHC: tissue Blood; for KIDNEY_L / KIDNEY_R / KIDNEY_TOTAL: tissue Kidney; for LIVER: tissue Liver
[1] = 0 mg/kg, […], dose level Control, time 28 day
[2] = 20 mg/kg, 72 h, dose level Low, time 3 day
[3] = 20 mg/kg, […], dose level Low, time 7 day
[4] = 20 mg/kg, […], dose level Low, time 14 day
[5] = 20 mg/kg, […], dose level Low, time 28 day

**Q.** For `CCCCc1oc2ccccc2c1C(=O)c1cc(I)c(OCCN(CC)CC)c(I)c1` [AMIODARONE], which TP [1] is on record?
**A.** 6 g/dL

**Q.** And the gamma-GTP [1]?
**A.** 1 IU/L

**Q.** And the TERMINAL_BW [2]?
**A.** 226.2 g

**Q.** What about the Bas [2] of the same compound?
**A.** 0%

**Q.** What about the Eos [2] of the same compound?
**A.** 0.8%

**Q.** And the Fbg [2]?
**A.** 227.8 mg/dL

**Q.** What about the Hb [2] of the same compound?
**A.** 13.5 g/dL

**Q.** What about the Ht [2] of the same compound?
**A.** 39%

**Q.** What about the Lym [2] of the same compound?
**A.** 78.2%

**Q.** What about the MCH [2] of the same compound?
**A.** 22.1 pg

**Q.** What about the MCV [2] of the same compound?
**A.** 63.9 fL

**Q.** What about the Mono [2] of the same compound?
**A.** 3%

**Q.** And the Neu [2]?
**A.** 16.6%

**Q.** What about the PT [2] of the same compound?
**A.** 12.8 s

**Q.** What about the Plat [2] of the same compound?
**A.** 125.2 x10_4/uL

**Q.** What about the RBC [2] of the same compound?
**A.** 610.8 x10_4/ul

**Q.** What about the Ret [2] of the same compound?
**A.** 6.1%

**Q.** And the WBC [2]?
**A.** 101.8 x10_2/uL

**Q.** And the KIDNEY_L [2]?
**A.** 1 g

**Q.** What about the KIDNEY_R [2] of the same compound?
**A.** 1 g

**Q.** What about the KIDNEY_TOTAL [2] of the same compound?
**A.** 2.1 g

**Q.** What about the LIVER [2] of the same compound?
**A.** 11 g

**Q.** What about the ALP [2] of the same compound?
**A.** 1159.8 IU/L

**Q.** What about the ALT [2] of the same compound?
**A.** 38.8 IU/L

**Q.** And the AST [2]?
**A.** 71 IU/L

**Q.** What about the BUN [2] of the same compound?
**A.** 17 mg/dL

**Q.** What about the CRE [2] of the same compound?
**A.** 0.4 mg/dL

**Q.** And the Ca [2]?
**A.** 10.7 mg/dL

**Q.** What about the DBIL [2] of the same compound?
**A.** 0.088 mg/dL

**Q.** What about the GLC [2] of the same compound?
**A.** 200 mg/dL

**Q.** What about the K [2] of the same compound?
**A.** 3.8 meq/L

**Q.** And the LDH [2]?
**A.** 215.2 IU/L

**Q.** What about the Na [2] of the same compound?
**A.** 140.4 meq/L

**Q.** And the PL [2]?
**A.** 144.2 mg/dL

**Q.** What about the RALB [2] of the same compound?
**A.** 3.4 g/dL

**Q.** And the TBIL [2]?
**A.** 0.1 mg/dL

**Q.** What about the TC [2] of the same compound?
**A.** 72.8 mg/dL

**Q.** And the TG [2]?
**A.** 88.8 mg/dL

**Q.** And the TP [2]?
**A.** 5.7 g/dL

**Q.** And the gamma-GTP [2]?
**A.** 1.6 IU/L

**Q.** And the TERMINAL_BW [3]?
**A.** 267.4 g

**Q.** And the TERMINAL_BW [4]?
**A.** 322 g

**Q.** And the TERMINAL_BW [5]?
**A.** 379.8 g

**Q.** What about the APTT [3] of the same compound?
**A.** 18.5 s

**Q.** What about the Bas [3] of the same compound?
**A.** 0%

**Q.** And the Eos [3]?
**A.** 0.8%

**Q.** What about the Fbg [3] of the same compound?
**A.** 222 mg/dL

**Q.** And the Ht [3]?
**A.** 39.1%

**Q.** And the Lym [3]?
**A.** 79.6%

**Q.** What about the MCH [3] of the same compound?
**A.** 21.1 pg

**Q.** And the MCHC [3]?
**A.** 34.1%

**Q.** What about the MCV [3] of the same compound?
**A.** 62 fL

**Q.** And the Mono [3]?
**A.** 2.8%

**Q.** What about the Neu [3] of the same compound?
**A.** 15.6%

**Q.** And the Plat [3]?
**A.** 126.6 x10_4/uL

**Q.** What about the RBC [3] of the same compound?
**A.** 630 x10_4/ul

**Q.** And the Ret [3]?
**A.** 6.1%

**Q.** What about the WBC [3] of the same compound?
**A.** 117.1 x10_2/uL

**Q.** What about the APTT [4] of the same compound?
**A.** 19.7 s

**Q.** What about the Bas [4] of the same compound?
**A.** 0%

**Q.** What about the Eos [4] of the same compound?
**A.** 1%

**Q.** And the Fbg [4]?
**A.** 216.8 mg/dL

**Q.** And the Hb [4]?
**A.** 14.2 g/dL

**Q.** And the Ht [4]?
**A.** 41.2%

**Q.** And the Lym [4]?
**A.** 79.6%

**Q.** What about the MCH [4] of the same compound?
**A.** 20.4 pg

**Q.** What about the MCV [4] of the same compound?
**A.** 59.2 fL

**Q.** And the Mono [4]?
**A.** 2.8%

**Q.** What about the Neu [4] of the same compound?
**A.** 15.6%

**Q.** What about the PT [4] of the same compound?
**A.** 12.8 s

**Q.** What about the Plat [4] of the same compound?
**A.** 116.8 x10_4/uL

**Q.** And the RBC [4]?
**A.** 696.4 x10_4/ul

**Q.** And the Ret [4]?
**A.** 4.6%

**Q.** And the WBC [4]?
**A.** 84.5 x10_2/uL

**Q.** And the APTT [5]?
**A.** 19.6 s

**Q.** What about the Bas [5] of the same compound?
**A.** 0%

**Q.** What about the Eos [5] of the same compound?
**A.** 1.2%

**Q.** And the Fbg [5]?
**A.** 221.6 mg/dL

**Q.** What about the Ht [5] of the same compound?
**A.** 43.5%

**Q.** And the Lym [5]?
**A.** 78.2%

**Q.** What about the MCH [5] of the same compound?
**A.** 19.6 pg

**Q.** And the MCHC [5]?
**A.** 35.1%

**Q.** And the MCV [5]?
**A.** 56 fL

**Q.** What about the Mono [5] of the same compound?
**A.** 2.8%

**Q.** What about the Neu [5] of the same compound?
**A.** 16.6%

**Q.** And the PT [5]?
**A.** 12.3 s

**Q.** What about the Plat [5] of the same compound?
**A.** 109.6 x10_4/uL

**Q.** What about the RBC [5] of the same compound?
**A.** 777.2 x10_4/ul

**Q.** And the Ret [5]?
**A.** 2.7%

**Q.** What about the WBC [5] of the same compound?
**A.** 117.6 x10_2/uL

**Q.** What about the KIDNEY_L [3] of the same compound?
**A.** 1.1 g

**Q.** What about the KIDNEY_R [3] of the same compound?
**A.** 1.1 g

**Q.** And the KIDNEY_TOTAL [3]?
**A.** 2.2 g

**Q.** And the KIDNEY_L [4]?
**A.** 1.3 g

**Q.** And the KIDNEY_R [4]?
**A.** 1.3 g

**Q.** And the KIDNEY_TOTAL [4]?
**A.** 2.5 g

**Q.** And the KIDNEY_L [5]?
**A.** 1.3 g

**Q.** What about the KIDNEY_R [5] of the same compound?
**A.** 1.3 g

**Q.** And the KIDNEY_TOTAL [5]?
**A.** 2.6 g

**Q.** What about the LIVER [3] of the same compound?
**A.** 12.7 g

**Q.** What about the LIVER [4] of the same compound?
**A.** 14.6 g

**Q.** And the LIVER [5]?
**A.** 15.5 g

**Q.** And the ALP [3]?
**A.** 1065 IU/L

**Q.** And the ALT [3]?
**A.** 33 IU/L

**Q.** And the AST [3]?
**A.** 61.8 IU/L

**Q.** And the CRE [3]?
**A.** 0.4 mg/dL

**Q.** And the Ca [3]?
**A.** 10.7 mg/dL

**Q.** What about the DBIL [3] of the same compound?
**A.** 0.1 mg/dL

**Q.** And the GLC [3]?
**A.** 216.6 mg/dL

**Q.** What about the K [3] of the same compound?
**A.** 3.8 meq/L

**Q.** And the LDH [3]?
**A.** 197.4 IU/L

**Q.** What about the Na [3] of the same compound?
**A.** 140.6 meq/L

**Q.** And the RALB [3]?
**A.** 3.3 g/dL

**Q.** What about the TBIL [3] of the same compound?
**A.** 0.2 mg/dL

**Q.** And the TC [3]?
**A.** 70.8 mg/dL

**Q.** And the TG [3]?
**A.** 89.4 mg/dL

**Q.** And the TP [3]?
**A.** 5.5 g/dL

**Q.** What about the gamma-GTP [3] of the same compound?
**A.** 1.2 IU/L

**Q.** What about the ALP [4] of the same compound?
**A.** 861.4 IU/L

**Q.** And the ALT [4]?
**A.** 38 IU/L

**Q.** What about the AST [4] of the same compound?
**A.** 63.6 IU/L

**Q.** What about the BUN [4] of the same compound?
**A.** 17.4 mg/dL

**Q.** What about the CRE [4] of the same compound?
**A.** 0.4 mg/dL

**Q.** What about the Ca [4] of the same compound?
**A.** 10.5 mg/dL

**Q.** And the DBIL [4]?
**A.** 0.1 mg/dL

**Q.** And the GLC [4]?
**A.** 220.6 mg/dL

**Q.** What about the K [4] of the same compound?
**A.** 4 meq/L

**Q.** And the LDH [4]?
**A.** 196.2 IU/L

**Q.** And the Na [4]?
**A.** 139.6 meq/L

**Q.** What about the PL [4] of the same compound?
**A.** 161.6 mg/dL

**Q.** And the RALB [4]?
**A.** 3.3 g/dL

**Q.** And the TBIL [4]?
**A.** 0.2 mg/dL

**Q.** What about the TC [4] of the same compound?
**A.** 81.2 mg/dL

**Q.** What about the TG [4] of the same compound?
**A.** 148.2 mg/dL

**Q.** And the TP [4]?
**A.** 5.7 g/dL

**Q.** And the gamma-GTP [4]?
**A.** 1.4 IU/L

**Q.** What about the ALP [5] of the same compound?
**A.** 765.6 IU/L

**Q.** And the ALT [5]?
**A.** 40 IU/L

**Q.** What about the AST [5] of the same compound?
**A.** 66.2 IU/L

**Q.** And the BUN [5]?
**A.** 18.2 mg/dL

**Q.** What about the CRE [5] of the same compound?
**A.** 0.5 mg/dL

**Q.** And the Ca [5]?
**A.** 10.5 mg/dL

**Q.** What about the DBIL [5] of the same compound?
**A.** 0.1 mg/dL

**Q.** And the GLC [5]?
**A.** 213.2 mg/dL

**Q.** And the K [5]?
**A.** 3.8 meq/L

**Q.** What about the LDH [5] of the same compound?
**A.** 192.6 IU/L

**Q.** And the Na [5]?
**A.** 140.4 meq/L

**Q.** What about the PL [5] of the same compound?
**A.** 160.8 mg/dL

**Q.** And the RALB [5]?
**A.** 3.5 g/dL

**Q.** What about the TBIL [5] of the same compound?
**A.** 0.2 mg/dL

**Q.** And the TC [5]?
**A.** 73.8 mg/dL

**Q.** What about the TG [5] of the same compound?
**A.** 164.6 mg/dL

**Q.** What about the TP [5] of the same compound?
**A.** 6.1 g/dL

**Q.** What about the gamma-GTP [5] of the same compound?
**A.** 1.4 IU/L
